# Test results taken from PMC11259170, “Small-molecule probe for IBD risk variant GPR65 I231L alters cytokine signaling networks through positive allosteric modulation” (Science Advances, 2024).
# Tested on: GFP-expressing HeLa cells
# Assay: cAMP detection in HeLa expression cell line, GFP control
# Format: cell-based, human
# Conditions: Homo sapiens, HeLa, 1st GFP column pair, NA = no activity
# Summary of the method: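 HeLa cells stably expressing C-terminally V5-tagged receptor or GFP (lentiviral, puromycin 3 μg/ml) stimulated at 1500 cells per well for 30 min at RT with compound (10 mM DMSO stock) in stimulation buffer at pH 7.2. cAMP detected by Lance Ultra TR-FRET after lysis and 1 h detection, excitation 337 nm, emission 620/665 nm.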
smiles,measurement,setting,value
"CN1N=C(SCc2ccc(Cl)cc2Cl)Sc2c1cnn(C)c2=O [BTB09089, reference compound]",EC50,,194 nM
same,Emax,"relative to 100uM forskolin (100%) and DMSO (0%), read-out: GFP Max Activity %",1.95%
